Test results reported in patent US12437835B2, “Interrogatory cell-based assays and uses thereof” (Berg LLC, priority 2012, dated 2025).
“Also recorded” adds a separate entry of the source.

Experiments:
HUVEC cells [1] = assay: Endothelial morphology of HUVEC cultures; assay type: cell-based, Human; conditions: 24 hours
Method: Effect of CoQ10 on endothelial morphology: Human umbilical vein endothelial cells (HUVEC cells) were treated for 24 hours with a range of concentrations of CoQ10. Drug was applied to confluent cells that closely resemble ‘normal’ cells and also to sub-confluent cells that more closely represent the angiogenic phenotype of proliferating cells. […] The response of sub-confluent endothelial cells to CoQ10 diverged from the confluent cell response (FIG. 52B).

Bcl2 [2] = conditions: melanoma cell, in the presence of VEGF; cited from earlier work
LDHA = assay: Wet lab validation of LDHA expression in HepG2 cells; assay type: cell-based; conditions: HepG2, 50 uM or 100 uM CoQ10, 24 or 48 hours
Method: The cell model comprising the above-mentioned cells, wherein the cells were exposed to each condition described above, was additionally interrogated by exposing the cells to an environmental perturbation by treating with Coenzyme Q10. Specifically, the cells were treated with Coenzyme Q10 at 0, 50 μM, or 100 μM.
Cell samples as well as media samples for each cell line with each condition and each Coenzyme Q10 treatment were collected at various times following treatment, including after 24 hours and 48 hours of treatment.
Protein accession number P00338 is LDHA. Wet lab validation of proteomics data were performed for LDHA expression in HepG2 cells (see FIG. 20).

[3] = test system: human mitochondrial energy metabolism genes; assay: Transcriptional profiling of mitochondrial energy metabolism genes in diabetic cardiomyocytes; assay type: cell-based; conditions: diabetic drug plus rescue molecule Coenzyme Q10 (T+R) vs untreated (UT)
Method: Human cardiomyocytes were subject to conditions simulating an diabetic environment experienced by the disease-relevant cells in vivo. Specifically, the cells were exposed to hyperglycemic conditions and hyperlipidemia conditions. The hyperglycemic condition was induced by culturing cells in media containing 22 mM glucose. The hyperlipidemia condition was induced by culturing the cells in media containing 1 mM L-carnitine, 0.7 mM Oleic acid and 0.7 mM Linoleic acid. […]
Cell samples from each condition with each perturbation treatment were collected at various times following treatment, including after 6 hours of treatment. For certain conditions, media samples were also collected and analyzed.
iProfiling of changes in total cellular protein expression by quantitative proteomics was performed for cell and media samples collected for each condition and with each “environmental perturbation”, i.e, diabetic drug treatment, Coenzyme Q10 treatment or both, using the techniques described above in the detailed description. […] Following data collection (Ct), the final fold change over control was determined using the δCt method as outlined in manufacturer's protocol. […] Functional assays such as Oxygen consumption rate OCR were measured by employing the Seahorse analyzer essentially as recommended by the manufacturer. […]

HUVEC cells [4] = assay: HUVEC proliferation (propidium iodide incorporation, G2/M phase); assay type: cell-based, Human; conditions: sub-confluent HUVEC, 72 hours, 100 or 1500 μM CoQ10
Method: Methods: Human umbilical vein endothelial cell (HUVEC) fate decisions that modulate the angiogenic phenotype were examined in the presence of 100 or 1500 μM CoQ10 or excipient and compared to untreated control cells. Endothelial cell fate assays for apoptosis, proliferation, migration and 3-D tube formation within MATRIGEL® were performed.
CoQ10 decreases endothelial cell numbers and proliferation: Sub-confluent cultures of HUVEC cells were treated for 72 hours with 100 or 1500 μM CoQ10 and assayed for both cell numbers (FIG. 54A) and proliferation (FIG. 54B) using a propidium iodide incorporation assay (detects G2/M phase DNA).

Bcl2 [5] = conditions: normal fibroblast, co-administration of CoQ-10 and VEGF; cited from earlier work
GPAT1 = assay: Western blotting of GPAT1 in cardiomyocytes; assay type: cell-based, Human; conditions: hyperglycemia conditioned cardiomyocytes, diabetic drug plus Coenzyme Q10 (T+R)
Method: Human cardiomyocytes were subject to conditions simulating an diabetic environment experienced by the disease-relevant cells in vivo. Specifically, the cells were exposed to hyperglycemic conditions and hyperlipidemia conditions. The hyperglycemic condition was induced by culturing cells in media containing 22 mM glucose. The hyperlipidemia condition was induced by culturing the cells in media containing 1 mM L-carnitine, 0.7 mM Oleic acid and 0.7 mM Linoleic acid.
The cell model comprising the above-mentioned cells, wherein the cells were exposed to each condition described above, was additionally “interrogated” by exposing the cells to an “environmental perturbation” by treating with a diabetic drug (T) which is known to cause cardiotoxicity, a rescue molecule (R) or both the diabetic drug and the rescue molecule (T+R). Specifically, the cells were treated with diabetic drug; or treated with rescue molecule Coenzyme Q10 at 0, 50 µM, or 100 µM; or treated with both of the diabetic drug and the rescue molecule Coenzyme Q10.
Protein expression levels of GPAT1 and TAZ for each condition and each treatment were tested with western blotting.

Structure (SMILES): COC1=C(OC)C(=O)C(C/C=C(\C)CC/C=C(\C)CC/C=C(\C)CC/C=C(\C)CC/C=C(\C)CC/C=C(\C)CC/C=C(\C)CC/C=C(\C)CC/C=C(\C)CCC=C(C)C)=C(C)C1=O [CoQ10, Coenzyme Q10]
- endothelial morphology (HUVEC cells [1]; confluent cultures, 5000 μM): subtle increase in rounded cells
- endothelial morphology (HUVEC cells [1]; confluent cultures, increasing concentrations of CoQ10): closer association, elongation and alignment of ECs
- endothelial morphology (HUVEC cells [1]; sub-confluent cultures, 1000 μM CoQ10 and above): visibly unhealthy
- visible cell death (HUVEC cells [1]; sub-confluent cultures, increasing concentrations of CoQ10): Increased cell death
- level of Bcl2 (Bcl2 [2]): decreased
- LDHA expression levels (LDHA): decreased
- transcriptional network and expression of human mitochondrial energy metabolism genes ([3]; listed as Coenzyme Q10): normalize gene expression and transcription
- transcriptional network and expression of human mitochondrial energy metabolism genes ([3]; listed as rescue molecule): normalizes gene expression
- EC proliferation (G2/M phase cells) (HUVEC cells [4]): dose-dependent effect; also recorded: potent inhibitor of endothelial proliferation; also recorded: impairs endothelial proliferation
- levels of Bcl2 (Bcl2 [5]): no effect
- protein expression level of GPAT1 (GPAT1): normalized
